# Assay results as given in patent publication US20200054651A1, “COMPOSITIONS AND METHODS FOR MODULATING PPP2R1A” (The Regents of the University of California, priority 2017, published 2020).
# Columns and labels:
# [1] = system: phosphorylated AKT (p-AKT); test: Western blot of phosphorylated AKT in 231MFP cells; type: cell-based
# Experimental: Antibodies to vinculin, phospho-Akt (Ser473), and Akt were obtained from a commercial source and proteomes were blotted per recommended manufacturer's' procedure. Cells were lysed in lysis buffer (containing the following: 20 mM Tris pH 7.5, 150 mM NaCl, 1 mM EDTA, 1 mM EGTA, 1% Triton X-100, 2.5 mM pyrophosphate, 50 mM NaF, 5 mM (3-glycero-phosphate, 1 mM Na3VO4, 50 nM calyculin A, and protease inhibitors). Lysate was incubated on a rotator at 4° C. for 30 min, and insoluble material was removed via centrifugation at a max speed for 10 minutes. Proteins were resolved by SDS/PAGE and transferred to nitrocellulose membranes using the iBlot system. Blots were blocked with 5% nonfat milk in Tris-buffered saline containing Tween 20 (TBST) solution for 1 hour at room temperature, washed in TBST, and probed with primary antibody diluted in a manufacturer recommended diluent overnight at 4° C. Following washes with TBST, the blots were incubated in the dark with secondary antibodies purchased from Rockland and used at 1:10 000 dilution in 5% nonfat milk in TBST at room temperature. Blots were visualized using an Odyssey Li-Cor scanner after additional washes.
# C377 of PPP2R1A = molecular target: T1, C377 of PPP2R1A (Homo sapiens, UniProt P30153); test: isoTOP-ABPP after in situ treatment of 231MFP cells; type: binding; conditions: 4 h in 231MFP cells in situ, IAyne labeling ex situ
# T1 construct: pre-incubating withaferin A (10 μM) for 30 min in 231MFP breast cancer cell proteomes; endogenous in cells; host or cells: 231MFP breast cancer cells (MDA-MB-231 derived)
# Experimental: IsoTOP-ABPP studies were performed using the methods described in “Nature 534(7608), 570-574 (2016)” by Backus K. M., et al. and “Nature 468(7325), 790-795 (2010)” by Weerapana E., et al. […] Then, IAyne (iodoacetamide-alkyne) labeling was performed for 1 hour at room temperature. CuAAC was used by sequential addition of tris(2-carboxyethyl)phosphine (1 mM), tris[(1-benzyl-1H-1,2,3-triazol-4-yl)methyl]amine (34 μM), copper (II) sulfate (1 mM), and biotin-linker-azide where the linker was functionalized with a TEV protease recognition sequence along with an isotopically light or heavy valine for treatment of control or treated proteome, respectively. After click reactions, proteomes were precipitated by centrifugation at 6500×g, washed in ice-cold methanol, combined in a 1:1 control/treated ratio, washed again, then denatured and re-solubilized by heating in 1.2% SDS/PBS to 80° C. for 5 minutes. Insoluble components were precipitated by centrifugation at 6500×g and soluble proteome was diluted in 0.2% SDS/PBS (5 ml). Labeled proteins were bound to avidin-agarose beads (170 μl re-suspended beads/sample) while rotating overnight at 4° C. Bead-linked proteins were enriched by washing three times each in PBS and water, then re-suspended in urea/PBS (6 M), reduced in TCEP (1 mM), alkylated with iodoacetamide (18 mM), then washed and re-suspended in urea/PBS (2 M), and finally trypsinized overnight with 0.5 μg/μl sequencing grade trypsin. Tryptic peptides were eluted off. Beads were washed in PBS (3 times) and water (3 times), washed in TEV buffer solution (water, TEV buffer, 100 μM dithiothreitol), and re-suspended in buffer with Ac-TEV protease and then incubated overnight. Peptides were diluted in water, acidified with formic acid (1.2 M), and prepared for analysis.
# Peptides from all proteomic experiments were pressure-loaded onto an Agilent 600 series RP-HPLC system equipped with a capillary tubing (250 mm) packed with Aqua C18 reverse-phase resin (4 cm). The system was previously equilibrated with a gradient (0% B to 100% B over 10 minutes, 100% B for 5 minutes, then 0% B for 5 minutes; buffer A: 95:5 water:acetonitrile, 0.1% formic acid; buffer B: 80:20 acetonitrile:water, 0.1% formic acid). The samples were then attached using a MicroTee PEEK 360 μm fitting to a laser pulled column (13 cm) packed with Aqua C18 reverse-phase resin (10 cm) and strong-cation exchange resin (3 cm) for isoTOP-ABPP studies. Samples were analyzed using an Q Exactive Plus mass spectrometer using a 5-step Multidimensional Protein Identification Technology (MudPIT) program. The system was run using a gradient (5% B to 55% B; buffer A: 95:5 water:acetonitrile, 0.1% formic acid; buffer B: 80:20 acetonitrile:water, 0.1% formic acid), along with a salt bump feeding aqueous ammonium acetate (500 mM) at an increment of 0%, 25%, 50%, 80%, to 100%. Data was collected in data-dependent acquisition mode with dynamic exclusion enabled (60 sec). One full MS scan (400-1800 m/z) (MS1 scan) was conducted, followed by MS2 scan (ITMS) (15 times) of the most abundant ions. Heated capillary temperature was set to 200° C. and the nanospray voltage was set to 2.75 kV.
# Data was extracted in the form of MS1 and MS2 files using Raw Extractor 1.9.9.2 and searched against the Uniprot […] database using ProLuCID search methodology in IP2 v.3, described in “J Proteomics 129:16-24 (2015)” by Xu T, et al. Cysteine residues were searched with a static modification for carboxyaminomethylation (+m/z 57.02146), up to two differential modifications for methionine oxidation, and either the light or heavy TEV tags (+m/z 464.28596 or +m/z 470.29977, respectively). Peptides were required to have at least one tryptic end and to contain the TEV modification. ProLUCID data was filtered through DTASelect to achieve a peptide false-positive rate below 1%. […]
# T1 sequence (P30153 whole entry): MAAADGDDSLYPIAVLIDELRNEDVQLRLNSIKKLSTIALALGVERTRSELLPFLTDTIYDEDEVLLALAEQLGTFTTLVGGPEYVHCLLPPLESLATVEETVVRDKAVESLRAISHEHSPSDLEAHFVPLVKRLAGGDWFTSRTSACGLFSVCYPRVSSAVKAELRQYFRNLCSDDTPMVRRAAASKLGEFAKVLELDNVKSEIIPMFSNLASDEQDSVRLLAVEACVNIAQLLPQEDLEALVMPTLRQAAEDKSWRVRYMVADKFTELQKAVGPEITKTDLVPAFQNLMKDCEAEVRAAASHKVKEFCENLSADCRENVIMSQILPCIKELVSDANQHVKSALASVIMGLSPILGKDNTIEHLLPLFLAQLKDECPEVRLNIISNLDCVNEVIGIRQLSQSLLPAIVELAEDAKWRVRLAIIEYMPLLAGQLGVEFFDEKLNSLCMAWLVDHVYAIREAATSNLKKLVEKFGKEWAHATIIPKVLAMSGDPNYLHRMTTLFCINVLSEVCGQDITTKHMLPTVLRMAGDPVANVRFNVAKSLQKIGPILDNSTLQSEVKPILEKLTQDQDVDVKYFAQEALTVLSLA
Compound,"phosphorylated AKT levels ([1]; 100 μM, 5 h)","isotopically light to heavy ratio, C377 of PPP2R1A (C377 of PPP2R1A; 100 μM)","phosphorylated AKT levels ([1]; 10 μM, 4 h)","phosphorylated AKT levels with cantharidin co-treatment ([1]; 10 μM, 4 h, co-treatment with cantharidin (10 μM, 4 h))","isotopically light to heavy ratio, C377 of PPP2R1A (C377 of PPP2R1A; 10 μM)"
"O=C(CCl)Nc1ccc2c(c1)OCCO2 [DKM 2-90, 2-Chloro-N-(2,3-dihydrobenzo[β][1,4]dioxin-6-yl)acetamide]",inhibit AKT signaling,5.9,–,–,–
"O=C(CCl)N(Cc1ccccc1)c1ccc2c(c1)OCCO2 [JNS 1-40, N-benzyl-2-chloro-N-(2,3-dihydrobenzo[b][1,4]dioxin-6-yl)acetamide]",significantly reduced phosphorylated AKT levels,> 5,–,–,–
"CC1=C(CO)C(=O)O[C@@H]([C@@H](C)[C@H]2CC[C@H]3[C@@H]4C[C@H]5O[C@]56[C@@H](O)C=CC(=O)[C@]6(C)[C@H]4CC[C@]23C)C1 [withaferin A, reference compound]",–,–,reduced phosphorylated AKT levels,rescued,4.0
